The target of this experiment is T1, hemoglobin (Homo sapiens, UniProt P69905).
T1 construct: whole blood ex vivo
As to the kind of experiment: Hb occupancy calculated from preliminary PK analysis of whole blood samples. Format: in vivo. Particulars: Patient A, 300 mg QD 14 days then 200 mg QD. The method, then:
In some embodiments, the therapeutically effective amount is determined by measuring the percent of hemoglobin occupied by the compound, i.e., the percent Hb occupancy. The percent Hb occupancy is a measure of target engagement defined as the percentage of hemoglobin bound by a compound (e.g., Compound I) calculated as the molar concentration of the compound (e.g., Compound I) in RBCs divided by the molar concentration of hemoglobin in RBCs (the mean corpuscular hemoglobin concentration calculated from the hematology panel). The values for concentration of a compound (e.g., Compound I) in RBCs is calculated from the concentrations in whole blood and plasma, and the hematocrit.
In some embodiments, the percent hemoglobin occupancy may be calculated as described herein. In some embodiments, percent hemoglobin occupancy is the molar ratio of Compound I concentration to the Hb concentration in red blood cells.
Some newly enrolled participants in Part A will receive a loading dose regimen of 300 mg of Compound I once daily over the first 14 days. Participants will then receive 200 mg once daily maintenance doses through Week 12.
Based on preliminary pharmacokinetic (PK) analysis of whole blood samples taken from Patient A at day 15 and day 29, Hb occupancy values of 62% and 53%, respectively, were calculated.

T1 sequence (P69905 whole entry): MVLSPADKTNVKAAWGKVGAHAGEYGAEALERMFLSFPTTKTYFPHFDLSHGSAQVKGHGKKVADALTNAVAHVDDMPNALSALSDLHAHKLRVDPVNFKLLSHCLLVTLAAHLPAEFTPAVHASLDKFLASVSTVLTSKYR
T1 sequence (P68871 with tags, fused parts or gaps E7V partner): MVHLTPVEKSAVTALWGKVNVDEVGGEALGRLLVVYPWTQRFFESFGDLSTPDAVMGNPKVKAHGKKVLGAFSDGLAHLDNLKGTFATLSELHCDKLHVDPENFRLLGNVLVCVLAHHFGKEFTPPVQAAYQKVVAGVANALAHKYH

On to `O=Cc1c(O)cccc1OC[C@@H]1COCCN1C(=O)c1cccnc1CCO` [Compound I, (S)-2-hydroxy-6-((4-(2-(2-hydroxyethyl)nicotinoyl)morpholin-3-yl)methoxy)benzaldehyde], for which the Hb occupancy (day 15, whole blood, 21600 min) was 62% and the Hb occupancy (day 29, whole blood, 41760 min) is reported as 53%.

These data come from US20260306503A1, “(S)-2-HYDROXY-6-((4-(2-(2-HYDROXYETHYL)NICOTINOYL)MORPHOLIN-3-YL)METHOXY)BENZALDEHYD FOR USE IN THE TREATMENT OF SICKLE CELL DISEASE” (Global Blood Therapeutics, Inc., priority 2023, published 2026).
